# Assay results taken from EP0366451A2, “The use of oxidized polyamines, especially NN'-Bis-(3-propionaldehyde)-1-4-diaminobutane (sperminedialdehyde) as immunosuppressive agents” (ORTHO PHARMACEUTICAL CORPORATION, priority 1988, dated 1990).
# Key:
# Human B lymphocytes = assay: Pokeweed mitogen driven human B cell proliferation after 1 hour incubation; assay type: cell-based; conditions: compared with T cells; Figure 1
# Experimental: Human T & B lymphocytes were incubated separately with different concentrations of spermine dialdehyde in vitro for 1 hour. Cells were washed extensively and set up in a PHA (for T cell) or PWM (B cell) proliferation assay. A graph is depicted wherein percentage of response is plotted as a function of concentration of spermine dialdehyde.
# Peripheral blood lymphocytes (PBL) were obtained from the blood of normal donors by using standard Ficoll-Hypaque gradient techniques. The T and non-T cells were separated by standard sheep red blood cell (SRBC) rosetting technique. Briefly, 5 x 10⁶/ml PBL were incubated with 1% neuraminidase-treated SRBC, and rosetted cells were separated from non-rosetted cells in a Ficoll-Hypaque gradient. The rosetted cells were designated as T cells. Purified B lymphocytes were obtained from non-rosetted cells by removal of residual T cells using the Pan T monoclonal antibody OKT 11 and complement.
# T cell proliferation: 7 x 10⁴ - 10⁵ human T lymphocytes were cultured in flat bottom microtiter plates (Flow) in the presence of 0.1% PHA-P or 1/64 PWM for 4 days. 3H-thymidine (0.1 MCi/well) was added for the last 6 hours of the culture period. […] Cell associated radioactivity was determined by scintillation counting in an automated counter. All of the results were expressed as % response calculated according to the formula: [formula] […]
# ALDH = ALDH assay in the mitochondrial fraction of L1210/CPA or mouse liver; assay type: biochemical; conditions: SDA up to 2.5 mM
# Experimental: Cultured murine leukemic cells and livers (excised from mice immediately after cervical dislocation) were homogenized in 3 volumes of ice-cold 1.15% KCl and 1 mM EDTA. The homogenate was centrifuged at 100,000 g for 45 min and the resulting supernatant was used to measure cytosolic ALDH activity. For particulate ALDH assay, the pellet (and homogenate for total ALDH) was resuspended in homogenizing buffer and treated with 0.25% Triton X-100 for 30 min at 4°C. The solubilized preparations were centrifuged at 48,000 g for 30 min and the supernatants were drawn off for ALDH determinations.
# ALDH activity was measured by monitoring the reduction of NAD or NADp for 5-6 min at […] at 37°C in DU70 spectrophotometer (Beckman). The assay mixture contained 50 mM potassium phosphate buffer, pH 7.4, 2.0 mM NAD (or NADP) and 1.0 mM EDTA. The reaction was started by adding the substrate (SDA or other aldehyde) to the prewarmed (5 min at 37°C) assay mixture containing enzyme preparation. Pyrazole (0.1 mM) was added particularly for liver enzyme, to inhibit alcohol dehydrogenase. The apparent Km and maximum velocity (Vmax) values were calculated using a Lineweaver-Burk plot based on the estimation of the slope by regression analysis. Enzyme activity was expressed as mU (nmoles/min) per mg of protein. Protein contents were determined by the Bradford method, using bovine serum albumin as the standard.
# Ornithine decarboxylase = Ornithine decarboxylase (Mus musculus, UniProt P00860); assay: Ornithine decarboxylase inhibition; assay type: biochemical; conditions: Figure 10
# Description: The figure illustrates the comparative profile of the inhibition of key regulatory enzymes of polyamine synthesis by SDA, its analogue, butyl dialdehyde (BDA), difluoromethyl orinithine (DFMO) and methyl glyoxal bis (guanylhydrazone) (MGBG).
# B6D2F1 mice = assay: Delayed type hypersensitivity to SRBC, footpad swelling; assay type: in vivo
# Experimental: Delayed type hypersensitivity was induced in the footpad of B6D2F1 mice and swelling measured in mm. Spermine dialdehyde was administered i.p. and i.m. at various timeperiods.
# Delayed type hypersensitivity was induced in the footpad of B6D2F1 mice by using sheep red blood cells (SRBC) as the antigen. Briefly, 0.2 ml of 0.01% SRBC was injected i.v. into B6D2F1 mice. Four days later, they were challenged in the footpad with 50 µl of 20% SRBC. Swelling of the footpad was measured 24, 48, and 72 hours later. Spermine dialdehyde was administered i.p. initiating from the day before immunization. After challenge in the footpad, B6D2F1 mice were given an intramuscular (i.m.) injection beside the challenge site one hour after challenge. Some mice received no i.p. administration and were only given one i.m. injection after the challenge.
# L1210/0 cells = assay: L1210/0 cell proliferation ([3H]-thymidine incorporation); assay type: cell-based, Murine
# Experimental: Murine lymphocytic leukemia cell lines, L1210/CPA and L1210/0 (als. known as Le/CPA and Le/0) were kindly provided by Dr. F. Struck, Southern Research Institute, Birmingham, AL. Cells were grown in RPMI-1640, supplemented with 10% horse serum, 100 units/ml penicillin and 100 µg/ml streptomycin. The cultures were incubated at 37°C in a humidified atmosphere with 5% CO₂ in air. Bone marrow cells were flushed from femurs of mice with RPMI-1640, using a tuberculin syringe fitted with a 25 gauge meedle. For spleen cells, spleens were removed and passed through a fine wire mesh to get a single homogenous cell suspension. In either case, cells were centrifuged, washed twice and resuspended in the drug exposure medium (see below). Cell viability was determined by trypan blue exclusion and the cell suspension was diluted to the desired concentration.
# Murine leukemic cells and bone marrow/spleen cells were treated with SDA (1 x 10^-6 M to 5 x 10⁻⁵ M) in RPMI-1640 or PBS based solution. Wherever mentioned, cells were pretreated with DEAB (10-30 µM) for 30-60 min at 37°C and then exposed to SDA.
# For [³H]-thymidine incorporation, drug or vehicle treated bone marrow or spleen cells were plated in RPMI-1640, containing 10% fetal bovine serum, 10 µM β-mercaptoethanol, 25 mM HEPES and 2 mM glutamine. Con-A (4 µg/ml and […]) was used as mitogens for bone marrow and spleen cells. Three days later, [³H]-thymidine (0.2 µCi/well) was added and cells were harvested after 12-18 hrs. L1210/CPA and L1210/0 cells (0.1 - 1 x 10⁵ cells/well were plated in RPMI-1640 containing 10% horse serum. [³H]-thymidine was added after 24 hrs and cells were filtered on GF/B filter paper for scintillation counting.
# Ornithine decarboxylase, sequence (P00860 whole entry): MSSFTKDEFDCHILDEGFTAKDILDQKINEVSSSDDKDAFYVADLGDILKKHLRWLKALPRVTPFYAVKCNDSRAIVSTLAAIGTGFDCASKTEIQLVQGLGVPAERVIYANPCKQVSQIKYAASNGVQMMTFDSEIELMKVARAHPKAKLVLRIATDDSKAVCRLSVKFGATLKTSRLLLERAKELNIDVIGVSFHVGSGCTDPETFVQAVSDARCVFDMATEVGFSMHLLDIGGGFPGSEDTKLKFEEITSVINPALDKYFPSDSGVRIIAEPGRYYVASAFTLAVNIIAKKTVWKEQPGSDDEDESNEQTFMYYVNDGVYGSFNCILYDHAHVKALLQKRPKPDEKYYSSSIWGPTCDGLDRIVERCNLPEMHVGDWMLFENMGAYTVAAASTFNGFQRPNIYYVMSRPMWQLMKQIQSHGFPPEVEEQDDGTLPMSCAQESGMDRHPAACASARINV
compound,measurement,setting,value
"O=CCCNCCCCNCCC=O [SDA, NN′-Bis-(3-propionaldehyde)-1-4-diaminobutane]",suppression of B lymphocyte proliferation,Human B lymphocytes,a much greater quantity was required
same,ALDH activity in the mitochondrial fraction,ALDH,could not be measured
same,inhibition of ODC (in words),Ornithine decarboxylase,inhibited both of the key enzymes
same,footpad swelling,"B6D2F1 mice; given both systemically (i.p.) and locally (i.m.), 24 or 48 hours after challenge, Figure 7",reduced swelling
same,footpad swelling,"B6D2F1 mice; given only after challenge, 24 hours later",swelling similar to that of mice receiving control vehicles
same,footpad swelling,"B6D2F1 mice; given only after challenge, 48 hours later",reduced swelling compared to that of the control group
same,effect of DEAB pretreatment on cytotoxicity of SDA,L1210/0 cells; DEAB (20 µM) pretreatment,little or no effect
same,IC50,"L1210/0 cells; Mus musculus, L1210/0, [³H]-thymidine incorporation, read-out: mean IC₅₀",4.66 µM
same,sensitivity of L1210/0 cells relative to L1210/CPA cells,L1210/0 cells; proliferation assays,2 fold
